From patent US20250215030A1, “STAT MODULATORS AND USES THEREOF” (Recludix Pharma, Inc., priority 2022, published 2025)

What follows are compounds tested against T1, pSTAT3 (pY705-STAT3) (Homo sapiens, UniProt P40763) (assay: MSD-pSTAT-PBMC Assay (pSTAT3, IL-6 stimulated)). Conditions: not given.
T1 construct: host or cells: cryopreserved PBMC
T1 sequence (P40763 whole entry): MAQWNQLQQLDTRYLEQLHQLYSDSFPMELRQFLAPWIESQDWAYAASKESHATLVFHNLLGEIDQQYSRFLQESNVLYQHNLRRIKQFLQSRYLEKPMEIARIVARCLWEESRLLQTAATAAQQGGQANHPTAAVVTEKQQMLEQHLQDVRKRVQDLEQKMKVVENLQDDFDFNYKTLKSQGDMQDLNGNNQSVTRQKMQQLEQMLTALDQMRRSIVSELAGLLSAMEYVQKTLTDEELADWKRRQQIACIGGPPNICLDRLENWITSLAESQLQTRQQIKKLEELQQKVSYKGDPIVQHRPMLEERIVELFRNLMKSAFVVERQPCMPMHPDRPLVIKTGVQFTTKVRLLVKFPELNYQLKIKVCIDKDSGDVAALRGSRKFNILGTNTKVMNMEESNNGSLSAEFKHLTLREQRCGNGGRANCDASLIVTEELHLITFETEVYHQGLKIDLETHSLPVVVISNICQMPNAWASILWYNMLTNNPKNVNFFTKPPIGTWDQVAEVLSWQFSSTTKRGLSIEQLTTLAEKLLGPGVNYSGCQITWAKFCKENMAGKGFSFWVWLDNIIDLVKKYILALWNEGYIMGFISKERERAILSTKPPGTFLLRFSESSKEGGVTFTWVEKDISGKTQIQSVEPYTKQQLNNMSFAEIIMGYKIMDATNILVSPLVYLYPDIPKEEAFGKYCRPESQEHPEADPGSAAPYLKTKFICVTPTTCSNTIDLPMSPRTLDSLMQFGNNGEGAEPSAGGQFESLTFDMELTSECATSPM
Assay type: cell-based
Text: Cryopreserved Peripheral Blood Mononuclear Cells (PBMC) are from AllCells. Recombinant Human IL-4 and IL-6 are from Peprotech. Mouse monoclonal anti-STAT3 antibody, rabbit monoclonal anti-pY705-STAT3 antibody, rabbit monoclonal Anti-pY641-STAT6 antibody, and lysis buffer are from Cell Signaling Technology (CST). Mouse monoclonal anti-STAT6 antibody is from BioLegend. Assay plates, blocker, and anti-rabbit secondary antibody are from Meso Scale Discovery (MSD).
Cryopreserved PBMCs were thawed out and allowed to recover overnight in IMDM+10% heat-inactivated FBS prior to plating 50,000 (STAT3) or 25,000 (STAT6) cells per well in 96-well U-bottom tissue culture plates. Cells were treated with compound for 3 hrs, then stimulated with 10 ng/mL IL-6 (STAT3) or 1 ng/mL IL-4 (STAT6) for 10 min. Cells were then spun down and washed with ice-cold PBS prior to lysing the cell pellet with 1× lysis buffer (CST) with 1× HALT protease and phosphatase inhibitor cocktail (Thermo). Lysates were transferred to and incubated overnight at 4° C. with shaking in QuickPlex 96-well high bind assay plates (MSD) pre-coated overnight with 30 μL per well of 0.6 μg/mL mouse monoclonal anti-STAT3 antibody (STAT3) or 2 μg/mL mouse monoclonal anti-STAT6 antibody (STAT6) in 1×PBS, and pre-blocked for 1 hour with 3% Blocker-A (MSD). Captured protein in the assay plates were then washed and probed with 25 μL per well of 0.25 μg/ml rabbit monoclonal anti-pY705-STAT3 antibody (STAT3) or 0.18 μg/ml rabbit monoclonal Anti-pY641-STAT6 antibody (STAT6) in 1% Blocker-A for 1 hour at room temperature with shaking, then washed and probed with 25 ul per well of 1 ug/mi Sulfo-TAG Labeled Goat Anti-Rabbit Antibody (MSD) in 1% Blocker-A for 1 hour at room temperature with shaking. Assay plates were then washed and 150 μL of 1× Read Buffer-T (MSD) was added to each well prior to reading on an SQ120 MSD Plate Reader. Assay signal from each sample was subtracted by the signal from unstimulated control wells and normalized to DMSO control wells. IC50 values were calculated using Graph Pad Prism Dose-Response Nonlinear Regression with variable slope. For both pSTAT3 and pSTAT6 A=≤100 nM; B=>100-1000 nM; C=>1000-3000 nM; and D=>3 μM.
`CCCOC(=O)[C@H](C)NP(=O)(Oc1ccccc1)C(F)c1ccc2sc(C(=O)N[C@H]3C[C@@H]4C[C@@H]4C[C@H]4CC[C@@H](C(=O)N5CC(c6cncnc6N6CCC6)C5)N4C3=O)cc2c1` (stereo partly drawn) [Compound 412, propyl(((S)-(2-(((3S,6S,7aS,8aR,9aR)-3-(3-(4-(azetidin-1-yl)pyrimidin-5-yl)azetidine-1-carbonyl)-5-oxodecahydro-1H-cyclopropa[d]pyrrolo[1,2-a]azocin-6-yl)carbamoyl)benzo[b]thiophen-5-yl)fluoromethyl)(phenoxy)phosphoryl)-L-alaninate] showed an IC50 of under 100 nM. For `CCCOC(=O)[C@H](C)NP(=O)(Cc1ccc2sc(C(=O)N[C@H]3C[C@H]4C[C@H]4C[C@H]4CC[C@@H](C(=O)N5CC(c6cnccc6CC)C5)N4C3=O)cc2c1)Oc1ccccc1` (stereo partly drawn) [Compound 392, propyl(((2-(((3S,6S,7aR,8aS,9aR)-3-(3-(4-ethylpyridin-3-yl)azetidine-1-carbonyl)-5-oxodecahydro-1H-cyclopropa[d]pyrrolo[1,2-a]azocin-6-yl)carbamoyl)benzo[b]thiophen-5-yl)methyl)(phenoxy)phosphoryl)-L-alaninate], the IC50 was under 100 nM. Compound `CCCOC(=O)[C@H](C)NP(=O)(Oc1ccccc1)C(F)c1ccc2sc(C(=O)N[C@H]3C[C@@H]4C[C@@H]4C[C@H]4CC[C@@H](C(=O)N5CC(c6cc(C(F)F)on6)C5)N4C3=O)cc2c1` (stereo partly drawn) [Compound 381, propyl(((2-(((3S,6S,7aS,8aR,9aR)-3-(3-(5-(difluoromethyl)isoxazol-3-yl)azetidine-1-carbonyl)-5-oxodecahydro-1H-cyclopropa[d]pyrrolo[1,2-a]azocin-6-yl)carbamoyl)benzo[b]thiophen-5-yl)fluoromethyl)(phenoxy)phosphoryl)-L-alaninate] has an IC50 of under 100 nM. For `CCCOC(=O)[C@@H](C)NP(=O)(Cc1ccc2sc(C(=O)N[C@H]3C[C@H]4C[C@H]4C[C@H]4CC[C@@H](C(=O)N5CC(c6cnccc6C)C5)N4C3=O)cc2c1)Oc1ccccc1` (stereo in doubt) [Compound 242, propyl(((2-(((3S,6S,7aR,8aS,9aR)-3-(3-(4-methylpyridin-3-yl)azetidine-1-carbonyl)-5-oxodecahydro-1H-cyclopropa[d]pyrrolo[1,2-a]azocin-6-yl)carbamoyl)benzo[b]thiophen-5-yl)methyl)(phenoxy)phosphoryl)-L-alaninate], the IC50 was under 100 nM. `CCCOC(=O)[C@H](C)N[P@](=O)(Oc1ccccc1)C(F)c1ccc2sc(C(=O)N[C@H]3C[C@@H]4C[C@@H]4C[C@H]4CC[C@@H](C(=O)N5CC(c6cnccc6N(C)C)C5)N4C3=O)cc2c1` (stereo partly drawn) [Compound 418, propyl((R)-((S)-(2-(((3S,6S,7aS,8aR,9aR)-3-(3-(4-(dimethylamino)pyridin-3-yl)azetidine-1-carbonyl)-5-oxodecahydro-1H-cyclopropa[d]pyrrolo[1,2-a]azocin-6-yl)carbamoyl)benzo[b]thiophen-5-yl)fluoromethyl)(phenoxy)phosphoryl)-L-alaninate] gave an IC50 of under 100 nM. Compound `CCCOC(=O)[C@H](C)N[P@](=O)(Oc1ccccc1)[C@H](F)c1ccc2sc(C(=O)N[C@H]3C[C@H]4C[C@H]4C[C@H]4CC[C@@H](C(=O)N5CC(c6cnccc6N6CCOCC6)C5)N4C3=O)cc2c1` [Compound 395, propyl((R)-((S)-fluoro(2-(((3S,6S,7aR,8aS,9aR)-3-(3-(4-morpholinopyridin-3-yl)azetidine-1-carbonyl)-5-oxodecahydro-1H-cyclopropa[d]pyrrolo[1,2-a]azocin-6-yl)carbamoyl)benzo[b]thiophen-5-yl)methyl)(phenoxy)phosphoryl)-L-alaninate] has an IC50 of under 100 nM. `CCCOC(=O)[C@H](C)NP(=O)(Oc1ccccc1)[C@H](F)c1ccc2sc(C(=O)N[C@H]3C[C@@H]4C[C@@H]4C[C@H]4CC[C@@H](C(=O)N5CC(c6cnccc6N6CCOCC6)C5)N4C3=O)cc2c1` (stereo partly drawn) [Compound 413, propyl(((S)-fluoro(2-(((3S,6S,7aS,8aR,9aR)-3-(3-(4-morpholinopyridin-3-yl)azetidine-1-carbonyl)-5-oxodecahydro-1H-cyclopropa[d]pyrrolo[1,2-a]azocin-6-yl)carbamoyl)benzo[b]thiophen-5-yl)methyl)(phenoxy)phosphoryl)-L-alaninate] was tested, and the IC50 was under 100 nM.

Same assay, conditions: PBMC, compound 3 hrs, then 10 ng/mL IL-6 for 10 min; MSD pY705-STAT3; read-out: pSTAT3
“propyl(((2-(((3S,6S,7aS,8aR,9aR)-8a-methyl-5-oxo-3-(3-(pyridin-3-yl)azetidine-1-carbonyl)decahydro-1H-cyclopropa[d]pyrrolo[1,2-a]azocin-6-yl)carbamoyl)benzo[b]thiophen-5-yl)methyl)(phenoxy)phosphoryl)-L-alaninate [Compound 233]” gave an IC50 of under 100 nM. `CCCOC(=O)[C@H](C)NP(=O)(Oc1ccccc1)C(F)c1ccc2sc(C(=O)N[C@H]3C[C@@H]4C[C@@H]4C[C@H]4CC[C@@H](C(=O)N5CC(c6cnccc6C)C5)N4C3=O)cc2c1` (stereo partly drawn) [Compound 307, propyl ((fluoro(2-(((3S,6S,7aS,8aR,9aR)-3-(3-(4-methylpyridin-3-yl)azetidine-1-carbonyl)-5-oxodecahydro-1H-cyclopropa[d]pyrrolo[1,2-a]azocin-6-yl)carbamoyl)benzo[b]thiophen-5-yl)methyl)(phenoxy)phosphoryl)-L-alaninate] showed an IC50 of under 100 nM. For `CCOC(=O)[C@H](C)NP(=O)(OCC(F)(F)F)C(F)c1ccc2sc(C(=O)N[C@H]3C[C@@H]4C[C@@H]4C[C@H]4CC[C@@H](C(=O)N5CC(c6cnccc6C)C5)N4C3=O)cc2c1` (stereo partly drawn) [Compound 329, ethyl ((fluoro(2-(((3S,6S,7aS,8aR,9aR)-3-(3-(4-methylpyridin-3-yl)azetidine-1-carbonyl)-5-oxodecahydro-1H-cyclopropa[d]pyrrolo[1,2-a]azicin-6-yl)carbamoyl)benzo[b]thiophen-5-yl)methyl)(2,2,2-trifluoroethoxy)phosphoryl)-L-alaninate], the IC50 was under 100 nM. For `CCCOC(=O)[C@H](C)N[P@@](=O)(Oc1ccccc1)[C@H](F)c1ccc2sc(C(=O)N[C@H]3C[C@H]4C[C@H]4C[C@H]4CC[C@@H](C(=O)N5CC(c6cnccc6N(C)C)C5)N4C3=O)cc2c1` [Compound 399], the IC50 was under 100 nM. `CCCOC(=O)[C@H](C)NP(=O)(Oc1ccccc1)C(F)c1ccc2sc(C(=O)N[C@H]3C[C@@H]4C[C@@H]4C[C@H]4CC[C@@H](C(=O)N5CC(c6ncccn6)C5)N4C3=O)cc2c1` (stereo partly drawn) [Compound 315, propyl ((fluoro(2-(((3S,6S,7aS,8aR,9aR)-5-oxo-3-(3-(pyrimidin-2-yl)azetidine-1-carbonyl)decahydro-1H-cyclopropa[d]pyrrolo[1,2-a]azocin-6-yl)carbamoyl)benzo[b]thiophen-5-yl)methyl)(phenoxy)phosphoryl)-L-alaninate] was tested, and the IC50 was 100 to 1000 nM. In the case of `CC(C)OC(=O)[C@H](C)NP(=O)(Oc1ccccc1)C(F)c1ccc2sc(C(=O)N[C@H]3C[C@@H]4C[C@@H]4C[C@H]4CC[C@@H](C(=O)N5CC(C(=O)N6CCOCC6)C5)N4C3=O)cc2c1` (stereo partly drawn) [Compound 153, isopropyl ((fluoro(2-(((3S,6S,7aS, 8aR,9aR)-3-(3-(morpholine-4-carbonyl)azetidine-1-carbonyl)-5-oxodecahydro-1H-cyclopropa[d]pyrrolo[1,2-a]azocin-6-yl)carbamoyl)benzo[b]thiophen-5-yl)methyl)phenoxy) phosphoryl)-L-alaninate], the IC50 is reported as 100 to 1000 nM. With `CC(C)OC(=O)[C@H](C)N[P@](=O)(Cc1ccc2sc(C(=O)N[C@H]3C[C@@H]4C[C@@H]4C[C@H]4CC[C@@H](C(=O)N5CC(C(=O)N6CCOCC6)C5)N4C3=O)cc2c1)Oc1ccccc1` (single isomer, unassigned) [Example 6] the IC50 was 1000 to 3000 nM. `CC(C)OC(=O)[C@H](C)NP(=O)(Cc1ccc2sc(C(=O)N[C@H]3C[C@@H]4C[C@@H]4C[C@H]4CC[C@@H](C(=O)N5CC(C(=O)N6CCOCC6)C5)N4C3=O)cc2c1)OCC(F)(F)F` (stereo partly drawn) [Compound 200, isopropyl (((2-(((3S,6S,7aS, 8aR,9aR)-3-(3-(morpholine-4-carbonyl)azetidine-1-carbonyl)-5-oxodecahydro-1H-cyclopropa [d]pyrrolo[1,2-a]azocin-6-yl)carbamoyl)benzo[b]thiophen-5-yl)methyl) (2,2,2-trifluoroethoxy)phosphoryl)-L-alaninate] showed an IC50 of 100 to 1000 nM. Work on `CCCOC(=O)[C@H](C)NP(=O)(Oc1ccccc1)C(F)c1ccc2sc(C(=O)N[C@H]3C[C@@H]4C[C@@H]4C[C@H]4CC[C@@H](C(=O)N5CC(c6ccon6)C5)N4C3=O)cc2c1` (stereo partly drawn) [Compound 316, propyl ((fluoro(2-(((3S,6S,7aS,8aR,9aR)-3-(3-(isoxazol-3-yl)azetidine-1-carbonyl)-5-oxodecahydro-1H-cyclopropa[d]pyrrolo[1,2-a]azocin-6-yl)carbamoyl)benzo[b]thiophen-5-yl)methyl)(phenoxy)phosphoryl)-L-alaninate] yielded an IC50 of under 100 nM.
